pKi: −log10 of the molar value.
Molecular target: T1, human cathepsin K (Homo sapiens, UniProt P43235)
T1 construct: The proform of cathepsin K was converted to mature cathepsin K by brief exposure to pH 4; made in house; host or cells: baculovirus; Trichoplusia ni High Five cells (virus raised in Sf-9)
T1 sequence (P43235 115-329): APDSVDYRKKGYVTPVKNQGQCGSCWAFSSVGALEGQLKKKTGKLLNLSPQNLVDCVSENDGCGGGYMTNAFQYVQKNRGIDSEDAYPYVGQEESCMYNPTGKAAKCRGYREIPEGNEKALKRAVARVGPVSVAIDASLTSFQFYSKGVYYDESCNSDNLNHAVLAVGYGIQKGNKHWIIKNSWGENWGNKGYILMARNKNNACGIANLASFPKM
Assay: cathepsin K inhibition assay, fluorogenic substrate Cbz-Phe-Arg-AMC, progress curve method
Format: biochemical
Details: Table 1; human recombinant enzyme, pH 5.5, 30° C., 10 μM substrate; read-out: hcatK Ki
Experimental: All assays for cathepsin K were carried out with human and rat recombinant enzyme. Assays for cathepsins S & V were also carried out with human recombinant enzyme. Assays for human cathepsins B, H, and L were carried out with enzyme, purchased from Athens Research and Technology, Inc., prepared from human liver tissue. […] A stock substrate solution of Cbz-Phe-Arg-AMC was prepared at a concentration of 50 mM in dimethyl sulfoxide. This substrate was diluted into the assay for a final substrate concentration of 10 μM in the rat cathepsin K, human cathepsin K, and human cathepsin B assays; a final substrate concentration of 5 μM in the human cathepsin L assay; and a final substrate concentration of 2 μM in the human cathepsin V assay.
All assays contained 10% dimethyl sulfoxide. […] All assays were conducted at 30° C. Product fluorescence (excitation at 360 nm; emission at 440 nm, (except cathepsin H which used excitation at 340 nm; emission at 420 nm)) was monitored with a PerSeptive Biosystems Cytofluor II fluorescence plate reader. Product progress curves were generated over 2.3 h monitoring the formation of 7-amino-4-methylcoumarin product (or β-naphthalamide for cathepsin H).
Two liters of Spodoptera frugiperda (Sf-9) cells (ATCC) were grown in Grace's Supplemented medium (Life Technologies) supplemented with 2 g/L glucose, 10% fetal bovine serum (HyClone) and 0.1% pluronic F-68 (Life Technologies). […] The cells continued to grow for 72 h post-infection, before the virus was harvested by centrifugation at 1400×g for 30 min.
One and one-half liters of Trichoplusia ni (T. ni) High Five (™) cells [JRH Biosciences, Woodland, Calif. […] Media were separated from cells at a rate of 1 L/min using the Centritech 100 (™) continuous-flow centrifuge (DuPont) operating at 200×g.
Protein Purification: Media (human and rat) were filtered through a Whatman 3 filter, and then loaded onto a 25 mL Poros HS II (26 mm×47 mm) cation exchange column equilibrated in 25 mM sodium acetate at pH 5.5 (equilibration buffer). The column was washed until the absorbance reached the baseline value, and then the protein was eluted with a linear gradient from 0-2 M sodium chloride in the equilibration buffer. Column fractions were analyzed by SDS-PAGE, N-terminal sequencing, and mass spectrometry. Fractions containing the proform of cathepsin K were pooled and frozen at −80° C. The proform was concentrated in an Amicon Centriprep 10 and fractionated with a Superdex 75 column (26 mm×600 mm, Pharmacia) equilibrated in 400 mM sodium chloride, 25 mM sodium acetate at pH 5.5.
Cathepsin K Activation: The proform of cathepsin K was converted to mature cathepsin K by brief exposure to pH 4 in the presence of 5 mM L-cysteine. Typically, 5 mM L-cysteine was added to 10 mL of approximately 1 mg/mL procathepsin K. One mL of this solution was diluted ten-fold into 450 mM sodium acetate at pH 4.0 containing 5 mM L-cysteine. This solution was reacted at 23° C. for 2 min before neutralization with 2 mL 1.8 M sodium acetate at pH 6.0. The neutralized sample was added to the remaining 9 mL of procathepsin K. The mixture was incubated at 4° C. for 2-3 days. The activated cathepsin K was chromatographed on a Poros HS II column as described above.
Potential inhibitors were evaluated using the progress curve method. Assays were carried out in the presence of variable concentrations of test compound. Reactions were initiated by addition of buffered solutions of inhibitor and substrate to enzyme. Data analysis was conducted according to one of two procedures depending on the appearance of the progress curves in the presence of inhibitors. […] Ki values were calculated from IC50 values using equation 2 assuming a competitive model.

pKi | SMILES
7.00 to 8.00 | CCCC[C@H](NC(=O)OCC1(COc2ccnc(N3CCOCC3)n2)CCC1)C(=O)C(=O)N[C@H](C)c1ccccc1 [Example 22, [1-({[2-(4-morpholinyl)-4-pyrimidinyl]oxy}methyl)cyclobutyl]methyl (1S)-1-(oxo{[(1R)-1-phenylethyl]amino}acetyl)pentylcarbamate]
> 9.00 | CCCC[C@H](NC(=O)OCC1(Cc2ccc(F)cc2)CCC1)C(=O)C(=O)Nc1ccn[nH]1 [Example 14, [1-(4-Fluorobenzyl)cyclobutyl]methyl(1S)-1-[oxo(1H-pyrazol-5-ylamino)acetyl]pentylcarbamate]
< 6.00 | CCCC[C@H](NC(=O)OCC1(CCCSc2nccn2C)CCC1)C(=O)C(=O)N[C@H](C)c1ccccc1 [Example 37, (1-{3-[(1-methyl-1H-imidazol-2-yl)sulfanyl]propyl}cyclobutyl)methyl (1S)-1-(oxo{[(1R)-1-phenylethyl]amino}acetyl)pentylcarbamate]
6.00 to 7.00 | C[C@@H](NC(=O)C(=O)[C@H](CCCCNC(=O)N1CCOCC1)NC(=O)OCC1(Cc2cccnc2)CCC1)c1ccccc1 [Example 12, [1-(3-Pyridinylmethyl)cyclobutyl]methyl(1S)-5-[(4-morpholinylcarbonyl)amino]-1-(oxo{[(1R)-1-phenylethyl]amino}acetyl)pentylcarbamate]
7.00 to 8.00 | CNC(=O)NCCCC[C@H](NC(=O)OCC1(Cc2c(F)cccc2F)CCC1)C(=O)C(=O)N[C@H](C)c1ccccc1 [Example 13, [1-(2,6-Difluorobenzyl)cyclobutyl]methyl(1S)-5-{[(methylamino)carbonyl]amino}-1-(oxo{[(1R)-1-phenylethyl]amino}acetyl)pentylcarbamate]
8.00 to 9.00 | CCCC[C@H](NC(=O)OCC1(Cc2nc(-c3ccccc3)cs2)CCC1)C(=O)C(=O)N[C@H](C)c1ccccc1 [Example 18, {1-[(4-phenyl-1,3-thiazol-2-yl)methyl]cyclobutyl}methyl(1S)-1-(oxo{[(1R)-1-phenylethyl]amino}acetyl)pentylcarbamate]
< 6.00 | CCCC[C@H](NC(=O)OCC1(CCCOc2ccnc(Cl)n2)CCC1)C(=O)C(=O)N[C@H](C)c1ccccc1 [Example 38, (1-{3-[(2-chloro-4-pyrimidinyl)oxy]propyl}cyclobutyl)methyl (1S)-1-(oxo{[(1R)-1-phenylethyl]amino}acetyl)pentylcarbamate]
7.00 to 8.00 | CCCC[C@H](NC(=O)OCC1(CSc2ncccn2)CCC1)C(=O)C(=O)N[C@H](C)c1ccccc1 [Example 23, {1-[(2-pyrimidinylsulfanyl)methyl]cyclobutyl}methyl (1S)-1-(oxo{[(1R)-1-phenylethyl]amino}acetyl)pentylcarbamate]
6.00 to 7.00 | CCCC[C@H](NC(=O)OCC1(COc2ncccn2)CCC1)C(=O)C(=O)N[C@H](C)c1ccccc1 [Example 30, {1-[(2-pyrimidinyloxy)methyl]cyclobutyl}methyl (1S)-1-(oxo {[(1R)-1-phenylethyl]amino}acetyl)pentylcarbamate]
7.00 to 8.00 | C[C@@H](NC(=O)C(=O)[C@H](CCCCNC(=O)N1CCOCC1)NC(=O)OCC1(Cc2ccc(F)cc2)CCC1)c1ccccc1 [Example 10, [1-(4-Fluorobenzyl)cyclobutyl]methyl(1S)-5-[(4-morpholinylcarbonyl)amino]-1-(oxo{[(1R)-1-phenylethyl]amino}acetyl)pentylcarbamate]
7.00 to 8.00 | CCCC[C@H](NC(=O)OCC1(COc2ccnc(N3CCN(C)CC3)n2)CCC1)C(=O)C(=O)N[C@H](C)c1ccccc1 [Example 21, [1-({[2-(4-methyl-1-piperazinyl)-4-pyrimidinyl]oxy}methyl)cyclobutyl]methyl (1S)-1-(oxo{[(1R)-1-phenylethyl]amino}acetyl)pentylcarbamate]
7.00 to 8.00 | CCCC[C@H](NC(=O)OCC1(CSc2nc3ccccc3o2)CCC1)C(=O)C(=O)N[C@H](C)c1ccccc1 [Example 24, {1-[(1,3-benzoxazol-2-ylsulfanyl)methyl]cyclobutyl}methyl (1S)-1-(oxo{[(1R)-1-phenylethyl]amino}acetyl)pentylcarbamate]

From patent publication US7282512B2, “Cycloalkyl ketoamides derivatives useful as cathepsin K inhibitors” (SmithKline Beecham Corporation, priority 2002, dated 2007)
